The EC50 is the concentration at which the effect is half-maximal.

The target of one assay is human CB2 receptors (Homo sapiens (Human), UniProt P34972). Kind of assay: functional cAMP assay, CHO cells expressing human CB2. Type of assay: cell-based. The method in brief: (§1)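 Cells are seeded 17-24 h ahead, then preincubated in Krebs Ringer bicarbonate buffer with 1 mM IBMX at 30 °C. Compounds act for 30 min at 30 °C, after which lysis and cAMP detection reagents are added for 2 h at room temperature. Time-resolved FRET gives cAMP content, and EC50 values are fitted from it.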

Another assay concerns the target human CB1 receptors (Homo sapiens (Human), UniProt P21554). The assay is described as follows: functional cAMP assay, CHO cells expressing human CB1. It is filed as cell-based. The method in brief:
as §1
On the technique in general: cAMP levels reflect the balance of adenylyl cyclase and phosphodiesterase activity.

Where [1] appears, read: functional cAMP assay, CHO cells expressing human CB1, read-out: Human CB1 EC50.
[2] abbreviates: read-out: Human CB1 EC50, functional cAMP assay, CHO cells expressing human CB1.
[3] abbreviates: Human CB1 EC50 (uM), functional cAMP assay, CHO cells expressing human CB1.

Where two headings read alike, the source gives them in different places.

human CB1 receptors, sequence (P21554 whole entry): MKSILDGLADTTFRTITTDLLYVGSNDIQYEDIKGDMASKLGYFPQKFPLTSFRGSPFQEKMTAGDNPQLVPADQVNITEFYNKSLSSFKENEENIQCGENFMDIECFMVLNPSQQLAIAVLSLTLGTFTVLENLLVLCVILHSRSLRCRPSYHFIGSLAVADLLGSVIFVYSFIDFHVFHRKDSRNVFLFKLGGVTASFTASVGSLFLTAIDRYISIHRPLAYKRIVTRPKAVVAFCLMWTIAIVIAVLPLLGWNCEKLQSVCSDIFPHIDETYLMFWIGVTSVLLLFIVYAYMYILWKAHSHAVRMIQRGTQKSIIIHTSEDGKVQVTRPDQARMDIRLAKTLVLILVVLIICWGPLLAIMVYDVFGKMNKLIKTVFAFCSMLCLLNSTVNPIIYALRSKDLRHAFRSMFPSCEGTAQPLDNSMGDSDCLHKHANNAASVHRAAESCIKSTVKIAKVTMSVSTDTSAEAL
human CB2 receptors, sequence (P34972 whole entry): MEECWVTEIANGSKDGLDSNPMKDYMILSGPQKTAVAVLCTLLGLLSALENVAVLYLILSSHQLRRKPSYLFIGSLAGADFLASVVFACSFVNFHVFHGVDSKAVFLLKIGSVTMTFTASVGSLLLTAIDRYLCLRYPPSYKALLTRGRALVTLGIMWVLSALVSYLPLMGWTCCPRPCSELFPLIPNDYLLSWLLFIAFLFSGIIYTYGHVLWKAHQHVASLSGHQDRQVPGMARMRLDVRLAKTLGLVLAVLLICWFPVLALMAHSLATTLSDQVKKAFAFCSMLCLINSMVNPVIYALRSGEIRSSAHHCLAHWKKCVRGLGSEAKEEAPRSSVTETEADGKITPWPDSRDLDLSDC

Turning to `CNC(=O)CC1(NC(=O)c2cc(OCC(F)(F)F)c(C3CC3)cn2)COC1` [Example 231, 5-cyclopropyl-N-[3-[2-(methylamino)-2-oxoethyl]oxetan-3-yl]-4-(2,2,2-trifluoroethoxy)pyridine-2-carboxamide], the EC50 is 0.547 µM on human CB2 receptors (read-out: Human CB2 EC50) and above 10 µM on human CB1 receptors (setting [1]).
For `Cc1nc(C(NC(=O)c2cc(OCC(F)(F)F)c(C3CC3)cn2)C(C)(C)C)no1` (centres unmarked) [Example 161, 5-cyclopropyl-N-[2,2-dimethyl-1-(5-methyl-1,2,4-oxadiazol-3-yl)propyl]-4-(2,2,2-trifluoroethoxy)pyridine-2-carboxamide], the EC50 on human CB2 receptors (read-out: Human CB2 EC50) was 0.0088 µM; at human CB1 receptors (setting [1]) it was above 10 µM.
With `CC(CC1CC1)(NC(=O)c1cc(OCC(F)(F)F)c(C2CC2)cn1)c1noc(N)n1` (single isomer, unassigned) [Example 208, N-[2-(5-amino-1,2,4-oxadiazol-3-yl)-1-cyclopropylpropan-2-yl]-5-cyclopropyl-4-(2,2,2-trifluoroethoxy)pyridine-2-carboxamide], the EC50 at human CB2 receptors (Human CB2 EC50 (uM)) is 0.0092 µM; at human CB1 receptors (setting [2]) it was above 10 µM.
Turning to `O=C(c1cc(OCC(F)(F)F)c(C2CC2)cn1)N1CC(F)(F)C1` [Example 76, [5-Cyclopropyl-4-(2,2,2-trifluoro-ethoxy)-pyridin-2-yl]-(3,3-difluoro-azetidin-1-yl)-methanone], the EC50 was 0.167 µM on human CB2 receptors (read-out: Human CB2 EC50) and above 10 µM at human CB1 receptors (setting [1]).
Turning to `Cc1nc(C(C)(CS(C)(=O)=O)NC(=O)c2cc(OCC(F)(F)F)c(C3CCC3)cn2)no1` (single isomer, unassigned) [Example 125, 5-cyclobutyl-N-[1-methyl-1-(5-methyl-1,2,4-oxadiazol-3-yl)-2-methylsulfonyl-ethyl]-4-(2,2,2-trifluoroethoxy)pyridine-2-carboxamide], the EC50 on human CB2 receptors (Human CB2 EC50 (uM)) is 0.011 µM; at human CB1 receptors (setting [2]), above 10 µM.
As for `CC(CF)Oc1cc(C(=O)NC(C)(CC(N)=O)C2CC2)ncc1C1CC1` (single isomer, unassigned) [Example 303, N-(4-amino-2-cyclopropyl-4-oxobutan-2-yl)-5-cyclopropyl-4-(1-fluoropropan-2-yloxy)picolinamide], the values for the EC50 on human CB2 receptors (read-out: Human CB2 EC50) and at human CB1 receptors (setting [1]) were 0.0485 µM and above 10 µM, respectively.
For `CNC(=O)CC1(NC(=O)c2cc(O[C@@H](C)C(F)(F)F)c(C3CC3)cn2)COC1` [Example 232, 5-cyclopropyl-N-[3-[2-(methylamino)-2-oxoethyl]oxetan-3-yl]-4-[(2S)-1,1,1-trifluoropropan-2-yl]oxypyridine-2-carboxamide], in that order: 0.116 µM and above 10 µM.
For `Cc1nnc(C(NC(=O)c2cc(O[C@@H](C)C(F)(F)F)c(C3CC3)cn2)C2(C)COC2)o1` (stereo partly drawn) [Example 246, 5-cyclopropyl-N-[(5-methyl-1,3,4-oxadiazol-2-yl)-(3-methyloxetan-3-yl)methyl]-4-[(2S)-1,1,1-trifluoropropan-2-yl]oxypyridine-2-carboxamide], in that order: 0.186 µM and above 10 µM.
With `Cc1nc(C(C)(CS(C)(=O)=O)NC(=O)c2cc(OCC(F)(F)F)c(C3(F)COC3)cn2)no1` (single isomer, unassigned) [Example 132, 5-(3-fluorooxetan-3-yl)-N-[2-(5-methyl-1,2,4-oxadiazol-3-yl)-1-methylsulfonylpropan-2-yl]-4-(2,2,2-trifluoroethoxy)pyridine-2-carboxamide], the EC50 at human CB2 receptors (read-out: Human CB2 EC50) was 0.333 µM; at human CB1 receptors it was above 10 µM.
As to `C[C@H](Oc1cc(C(=O)NC(C)(CC(N)=O)C2CC2)ncc1C1CC1)C(F)(F)F` (stereo partly drawn) [Example 248, N-(4-amino-2-cyclopropyl-4-oxobutan-2-yl)-5-cyclopropyl-4-[(2S)-1,1,1-trifluoropropan-2-yl]oxypyridine-2-carboxamide], the figures for the EC50 at human CB2 receptors (read-out: Human CB2 EC50) and on human CB1 receptors (setting [1]) were 0.0009 µM and above 10 µM, respectively.
On the same counts, the results for `O=C(NC(CCO)C1CC1)c1cc(OCC2CC2)c(Cl)cn1` (centres unmarked) [Example 19, 5-Chloro-4-cyclopropylmethoxy-pyridine-2-carboxylic acid (1-cyclopropyl-3-hydroxy-propyl)-amide] are 0.0615 µM and above 10 µM.
As to `Cc1nc(C(C)(CC2CC2)NC(=O)c2cc(OCC(F)F)c(C3CC3)cn2)no1` (single isomer, unassigned) [Example 155, 5-cyclopropyl-N-[1-cyclopropyl-2-(5-methyl-1,2,4-oxadiazol-3-yl)propan-2-yl]-4-(2,2-difluoroethoxy)pyridine-2-carboxamide], the results for the EC50 at human CB2 receptors (Human CB2 EC50 (uM)) and on human CB1 receptors (setting [2]) were 0.0058 µM and above 10 µM, respectively.
As to `CCC(CC)(CO)NC(=O)c1cc(OCC(F)(F)F)c(C2CC2)cn1` [Example 54, 5-Cyclopropyl-4-(2,2,2-trifluoro-ethoxy)-pyridine-2-carboxylic acid (1-ethyl-1-hydroxymethyl-propyl)-amide], the EC50 on human CB2 receptors (read-out: Human CB2 EC50) is 0.0185 µM; at human CB1 receptors (setting [1]) it was above 10 µM.
With `Cc1nc(C(C)(CC2CC2)NC(=O)c2cc(OC(C)CF)c(C3CC3)cn2)no1` (single isomer, unassigned) [Example 287, 5-cyclopropyl-N-(1-cyclopropyl-2-(5-methyl-1,2,4-oxadiazol-3-yl)propan-2-yl)-4-(1-fluoropropan-2-yloxy)picolinamide], the EC50 was 0.0014 µM at human CB2 receptors (Human CB2 EC50 (uM)) and above 10 µM on human CB1 receptors (setting [3]).
Turning to `CN(C)C(=O)CC1(NC(=O)c2cc(OCC(F)(F)F)c(Cl)cn2)COC1` [Example 85, 5-Chloro-4-(2,2,2-trifluoro-ethoxy)-pyridine-2-carboxylic acid (3-dimethylcarbamoylmethyl-oxetan-3-yl)-amide], the EC50 on human CB2 receptors (read-out: Human CB2 EC50) was 0.362 µM; on human CB1 receptors (setting [1]), above 10 µM.
Regarding `Cc1nc(C(C)(CS(C)(=O)=O)NC(=O)c2cc(OCCF)c(C3CC3)cn2)no1` (single isomer, unassigned) [Example 280, 5-cyclopropyl-4-(2-fluoroethoxy)-N-[2-(5-methyl-1,2,4-oxadiazol-3-yl)-1-methylsulfonylpropan-2-yl]pyridine-2-carboxamide], the results for the EC50 on human CB2 receptors (Human CB2 EC50 (uM)) and at human CB1 receptors (setting [2]) were 0.0786 µM and above 10 µM, respectively.
Consider `Cc1nc(C(C)(CN2CC(F)(F)C2)NC(=O)c2cc(OCC(F)(F)F)c(C3CC3)cn2)no1` (centres unmarked) [Example 128, 5-cyclopropyl-N-[1-(3,3-difluoroazetidin-1-yl)-2-(5-methyl-1,2,4-oxadiazol-3-yl)propan-2-yl]-4-(2,2,2-trifluoroethoxy)pyridine-2-carboxamide], for which the results for the EC50 at human CB2 receptors (read-out: Human CB2 EC50) and at human CB1 receptors (setting [1]) were 0.0653 µM and above 10 µM, respectively.
On the same counts, the results for `CC(C)(O)CNC(=O)c1cc(OCC2CC2)c(C2CC2)cn1` [Example 59, 5-Cyclopropyl-4-cyclopropylmethoxy-pyridine-2-carboxylic acid (2-hydroxy-2-methyl-propyl)-amide] are 0.0816 µM and above 10 µM.
For the compound `Cc1nc(C(C)(CC2CC2)NC(=O)c2cc(OCC(F)(F)F)c(C3CCC3)cn2)no1` (single isomer, unassigned) [Example 116, 5-cyclobutyl-N-[1-cyclopropyl-2-(5-methyl-1,2,4-oxadiazol-3-yl)propan-2-yl]-4-(2,2,2-trifluoroethoxy)pyridine-2-carboxamide], the EC50 at human CB2 receptors (Human CB2 EC50 (uM)) is 0.0041 µM; at human CB1 receptors (setting [3]), above 10 µM.
As to `Cc1nc([C@](C)(NC(=O)c2cc(OCC(F)(F)F)c(Cl)cn2)C2CC2)no1` (single isomer, unassigned; enantiomer a) [Example 74, 5-Chloro-4-(2,2,2-trifluoro-ethoxy)-pyridine-2-carboxylic acid [1-cyclopropyl-1-(5-methyl-[1,2,4]oxadiazol-3-yl)-ethyl]-amide (enantiomer A)], the EC50 at human CB2 receptors (Human CB2 EC50 (uM)) was 0.0133 µM; at human CB1 receptors (setting [3]), above 10 µM.
Take `Cc1nc(C(C)(CC2CC2)NC(=O)c2cc(O[C@@H](C)C(F)(F)F)c(C3CCC3)cn2)no1` (stereo partly drawn) [Example 120, 5-cyclobutyl-N-[1-cyclopropyl-2-(5-methyl-1,2,4-oxadiazol-3-yl)propan-2-yl]-4-[(2S)-1,1,1-trifluoropropan-2-yl]oxypyridine-2-carboxamide]: the EC50 at human CB2 receptors (read-out: Human CB2 EC50) was 0.0008 µM; on human CB1 receptors (setting [1]), above 10 µM.
On the same counts, the results for `Cn1nnc(C(C)(CC2CC2)NC(=O)c2cc(OCC(F)(F)F)c(C3CC3)cn2)n1` (centres unmarked) [Example 150, 5-cyclopropyl-N-[1-cyclopropyl-2-(2-methyltetrazol-5-yl)propan-2-yl]-4-(2,2,2-trifluoroethoxy)pyridine-2-carboxamide] are 0.109 µM and above 10 µM.
For `NC(=O)CC1(NC(=O)c2cc(OCC3CC3)c(N3CC(F)(F)C3)cn2)CS(=O)(=O)C1` [Example 267, N-[3-(2-amino-2-oxoethyl)-1,1-dioxothietan-3-yl]-4-(cyclopropylmethoxy)-5-(3,3-difluoroazetidin-1-yl)pyridine-2-carboxamide], in that order: 0.0105 µM and above 10 µM.
On the same counts, the results for `Cc1nc(C(NC(=O)c2cc(O[C@@H](C)C(F)(F)F)c(C3CC3)cn2)C2(C)COC2)no1` (stereo partly drawn) [Example 255, 5-cyclopropyl-N-[(5-methyl-1,2,4-oxadiazol-3-yl)-(3-methyloxetan-3-yl)methyl]-4-[(2S)-1,1,1-trifluoropropan-2-yl]oxypyridine-2-carboxamide] are 0.0067 µM and above 10 µM.
For the compound `CNC(=O)C(C)(NC(=O)c1cc(O[C@@H](C)C(F)(F)F)c(C2(F)COC2)cn1)c1noc(C)n1` (stereo partly drawn) [Example 183, 5-(3-fluorooxetan-3-yl)-N-[1-(methylamino)-2-(5-methyl-1,2,4-oxadiazol-3-yl)-1-oxopropan-2-yl]-4-[(2S)-1,1,1-trifluoropropan-2-yl]oxypyridine-2-carboxamide], the EC50 on human CB2 receptors (read-out: Human CB2 EC50) is 0.917 µM; on human CB1 receptors (setting [1]), above 10 µM.
